Assay results: patent US20240174662A1, “SMALL MOLECULE INHIBITORS OF SALT INDUCIBLE KINASES” (Janssen Biotech, Inc., priority 2021, published 2024)

Target: SIK2 (Homo sapiens (Human), UniProt Q9H0K1)
Assay: SIK2 Enzymatic Assay Version 2 (High ATP)
Assay type: biochemical
Conditions: 3 mM ATP and 200 μM HDAC5tide final, ADP-Glo Max luminescence
Method in brief: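 Run at room temperature; SIK2 enzyme at 6 nM (2× final) preincubated with compound 30 min before reaction. ADP formation detected by ADP-Glo Max (2 h reagent, 1 h detection) with luminescence read-out.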

SIK2, sequence (Q9H0K1 whole entry, species assumed): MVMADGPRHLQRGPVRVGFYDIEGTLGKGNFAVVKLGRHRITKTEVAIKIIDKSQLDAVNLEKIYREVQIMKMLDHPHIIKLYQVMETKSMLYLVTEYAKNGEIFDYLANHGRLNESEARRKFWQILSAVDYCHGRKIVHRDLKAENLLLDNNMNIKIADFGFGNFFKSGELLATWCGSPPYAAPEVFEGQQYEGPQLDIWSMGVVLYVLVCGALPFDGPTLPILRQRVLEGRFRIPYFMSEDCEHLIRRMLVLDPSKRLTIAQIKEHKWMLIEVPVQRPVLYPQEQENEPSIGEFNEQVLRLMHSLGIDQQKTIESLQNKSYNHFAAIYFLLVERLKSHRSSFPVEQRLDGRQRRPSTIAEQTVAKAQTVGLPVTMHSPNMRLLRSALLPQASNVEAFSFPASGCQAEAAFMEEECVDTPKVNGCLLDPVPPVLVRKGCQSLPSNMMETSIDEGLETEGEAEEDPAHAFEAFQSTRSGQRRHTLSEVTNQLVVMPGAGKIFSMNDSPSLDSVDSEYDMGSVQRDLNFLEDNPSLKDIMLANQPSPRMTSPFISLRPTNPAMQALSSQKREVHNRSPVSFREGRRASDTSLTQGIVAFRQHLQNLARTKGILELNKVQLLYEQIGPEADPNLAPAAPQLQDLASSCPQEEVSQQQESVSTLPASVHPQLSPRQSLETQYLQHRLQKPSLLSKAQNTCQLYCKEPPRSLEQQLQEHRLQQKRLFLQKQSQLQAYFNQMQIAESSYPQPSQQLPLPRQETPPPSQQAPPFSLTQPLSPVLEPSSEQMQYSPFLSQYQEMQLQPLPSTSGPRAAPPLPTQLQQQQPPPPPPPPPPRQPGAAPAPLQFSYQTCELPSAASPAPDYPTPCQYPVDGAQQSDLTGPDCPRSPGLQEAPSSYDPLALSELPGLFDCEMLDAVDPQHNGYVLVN

SMILES	IC50 [nM]
CN1CC[C@H](Oc2cnn(C(F)F)c2-c2ccn3nc(NC(=O)C4CC4)cc3c2)C1 [Example 470, N-[5-[2-(difluoromethyl)-4-[(3S)-1-methylpyrrolidin-3-yl]oxy-pyrazol-3-yl]pyrazolo[1,5-a]pyridin-2-yl]cyclopropanecarboxamide]	143
Cn1ncc(O[C@H]2CCNC2)c1-c1ccc2nc(NC(=O)C3CC3)cn2c1 [Example 471, N-[6-[2-methyl-4-[(3S)-pyrrolidin-3-yl]oxy-pyrazol-3-yl]imidazo[1,2-a]pyridin-2-yl]cyclopropanecarboxamide]	55.8
CN1CC[C@H](Oc2cnn(C)c2-c2ccc3nc(NC(=O)C4CC4)cn3c2)C1 [Example 472, N-[6-[2-methyl-4-[(3S)-1-methylpyrrolidin-3-yl]oxy-pyrazol-3-yl]imidazo[1,2-a]pyridin-2-yl]cyclopropanecarboxamide]	106
CN1CC[C@@H]1COc1cnn(C)c1-c1ccn2nc(NC(=O)[C@@H]3C[C@@H]3C#N)cc2c1 [Example 475, cis-2-cyano-N-[5-[2-methyl-4-[(1-methylazetidin-2-yl)methoxy]pyrazol-3-yl]pyrazolo[1,5-a]pyridin-2-yl]cyclopropanecarboxamide]	51.9
CCN1CC[C@@H]1COc1cnn(C)c1-c1ccc2nc(Nc3cc(C)nc(C)n3)cn2c1 [Example 476, N-(2,6-dimethylpyrimidin-4-yl)-6-[4-[[(2R)-1-ethylazetidin-2-yl]methoxy]-2-methyl-pyrazol-3-yl]imidazo[1,2-a]pyridin-2-amine]	3.1
CCN1CC[C@@H]1COc1cnn(C(F)F)c1-c1ccn2nc(Nc3ccnc(C)n3)cc2c1 [Example 477, 5-[2-(difluoromethyl)-4-[[(2R)-1-ethylazetidin-2-yl]methoxy]pyrazol-3-yl]-N-(2-methylpyrimidin-4-yl)pyrazolo[1,5-a]pyridin-2-amine]	2.1
CCN1CC[C@@H]1COc1cnn(C(F)F)c1-c1ccn2nc(Nc3cc(C)ncn3)cc2c1 [Example 478, 5-[2-(difluoromethyl)-4-[[(2R)-1-ethylazetidin-2-yl]methoxy]pyrazol-3-yl]-N-(6-methylpyrimidin-4-yl)pyrazolo[1,5-a]pyridin-2-amine]	3
CCN1CC[C@@H]1COc1cnn(C(F)F)c1-c1ccn2nc(Nc3cc(C)nc(C)n3)cc2c1 [Example 479, 5-[2-(difluoromethyl)-4-[[(2R)-1-ethylazetidin-2-yl]methoxy]pyrazol-3-yl]-N-(2,6-dimethylpyrimidin-4-yl)pyrazolo[1,5-a]pyridin-2-amine]	1.1
CCN1CC[C@@H]1COc1cnn(C(F)F)c1-c1ccn2nc(Nc3ccc(C)nn3)cc2c1 [Example 480, 5-[2-(difluoromethyl)-4-[[(2R)-1-ethylazetidin-2-yl]methoxy]pyrazol-3-yl]-N-(6-methylpyridazin-3-yl)pyrazolo[1,5-a]pyridin-2-amine]	10
CCN1CC[C@@H]1COc1cnn(C(F)F)c1-c1ccn2nc(Nc3ccnc(OC)n3)cc2c1 [Example 481, 5-[2-(difluoromethyl)-4-[[(2R)-1-ethylazetidin-2-yl]methoxy]pyrazol-3-yl]-N-(2-methoxypyrimidin-4-yl)pyrazolo[1,5-a]pyridin-2-amine]	17.6
CCN1CC[C@@H]1COc1cnn(C(F)F)c1-c1ccn2nc(Nc3cncc(C)n3)cc2c1 [Example 482, 5-[2-(difluoromethyl)-4-[[(2R)-1-ethylazetidin-2-yl]methoxy]pyrazol-3-yl]-N-(6-methylpyrazin-2-yl)pyrazolo[1,5-a]pyridin-2-amine]	1.8
CCN1CC[C@@H]1COc1cnn(C(F)F)c1-c1ccn2nc(Nc3cc(C)c(OC)nn3)cc2c1 [Example 483, 5-[2-(difluoromethyl)-4-[[(2R)-1-ethylazetidin-2-yl]methoxy]pyrazol-3-yl]-N-(6-methoxy-5-methyl-pyridazin-3-yl)pyrazolo[1,5-a]pyridin-2-amine]	0.9
CCN1CC[C@@H]1COc1cnn(C(F)F)c1-c1ccn2nc(Nc3cc(C)c(=O)n(C)n3)cc2c1 [Example 484, 6-[[5-[2-(difluoromethyl)-4-[[(2R)-1-ethylazetidin-2-yl]methoxy]pyrazol-3-yl]pyrazolo[1,5-a]pyridin-2-yl]amino]-2,4-dimethyl-pyridazin-3-one]	0.9
Cc1cc(Nc2cn3cc(-c4c(OC[C@H]5CCN5C)cnn4C)ccc3n2)nc(C)n1 [Example 485, N-(2,6-dimethylpyrimidin-4-yl)-6-[2-methyl-4-[[(2R)-1-methylazetidin-2-yl]methoxy]pyrazol-3-yl]imidazo[1,2-a]pyridin-2-amine]	1.1
CN1CC[C@@H](COc2cnn(CC3CC3)c2-c2ccn3nc(NC(=O)C4CC4)cc3c2)C1 [Example 489, N-[5-[2-(cyclopropylmethyl)-4-[[(3R)-1-methylpyrrolidin-3-yl]methoxy]pyrazol-3-yl]pyrazolo[1,5-a]pyridin-2-yl]cyclopropanecarboxamide]	13600
CCCn1ncc(OC[C@@H]2CCN(C)C2)c1-c1ccn2nc(NC(=O)C3CC3)cc2c1 [Example 490, N-[5-[4-[[(3R)-1-methylpyrrolidin-3-yl]methoxy]-2-propyl-pyrazol-3-yl]pyrazolo[1,5-a]pyridin-2-yl]cyclopropanecarboxamide]	7330

SMILES	IC50 [nM]
CN1CC[C@@H](COc2cnn(Cc3ccccc3)c2-c2ccn3nc(NC(=O)C4CC4)cc3c2)C1 [Example 491, N-[5-[2-benzyl-4-[[(3R)-1-methylpyrrolidin-3-yl]methoxy]pyrazol-3-yl]pyrazolo[1,5-a]pyridin-2-yl]cyclopropanecarboxamide]	> 50000
CN1CCC(Oc2cnn(C)c2-c2ccn3nc(NC(=O)C4CC4)cc3c2)CC1 [Example 492, N-[5-[2-methyl-4-[(1-methyl-4-piperidyl)oxy]pyrazol-3-yl]pyrazolo[1,5-a]pyridin-2-yl]cyclopropanecarboxamide]	432
Cc1onc(OC2CCN(C)CC2)c1-c1ccn2nc(NC(=O)C3CC3)cc2c1 [Example 493, N-[5-[5-methyl-3-[(1-methyl-4-piperidyl)oxy]isoxazol-4-yl]pyrazolo[1,5-a]pyridin-2-yl]cyclopropanecarboxamide]	236
Cc1onc(OC2CN(C)C2)c1-c1ccn2nc(NC(=O)C3CC3)cc2c1 [Example 494, N-[5-[5-methyl-3-(1-methylazetidin-3-yl)oxy-isoxazol-4-yl]pyrazolo[1,5-a]pyridin-2-yl]cyclopropanecarboxamide]	424
Cc1onc(OC[C@H]2COCCN2)c1-c1ccn2nc(NC(=O)C3CC3)cc2c1 [Example 496, N-[5-[5-methyl-3-[[(3R)-morpholin-3-yl]methoxy]isoxazol-4-yl]pyrazolo[1,5-a]pyridin-2-yl]cyclopropanecarboxamide]	995
Cc1onc(OC[C@@H]2COCCN2)c1-c1ccn2nc(NC(=O)C3CC3)cc2c1 [Example 497]	2530
Cc1onc(OC[C@@H]2CCN2C)c1-c1ccn2nc(NC(=O)C3CC3)cc2c1 [Example 498]	232
CN1C[C@@H](F)[C@@H](Oc2cnn(C)c2-c2ccn3nc(NC(=O)C4CC4)cc3c2)C1 [Example 499]	720
Cc1onc(OC[C@@H]2CCCN2C)c1-c1ccn2nc(NC(=O)C3CC3)cc2c1 [Example 500, N-[5-[5-methyl-3-[[(2S)-1-methylpyrrolidin-2-yl]methoxy]isoxazol-4-yl]pyrazolo[1,5-a]pyridin-2-yl]cyclopropanecarboxamide]	431
Cc1onc(OC[C@@H]2CCCCN2C)c1-c1ccn2nc(NC(=O)C3CC3)cc2c1 [Example 501, N-[5-[5-methyl-3-[[(2S)-1-methyl-2-piperidyl]methoxy]isoxazol-4-yl]pyrazolo[1,5-a]pyridin-2-yl]cyclopropanecarboxamide]	355
Cc1onc(OC[C@H]2CCCCN2C)c1-c1ccn2nc(NC(=O)C3CC3)cc2c1 [Example 502, N-[5-[5-methyl-3-[[(2R)-1-methyl-2-piperidyl]methoxy]isoxazol-4-yl]pyrazolo[1,5-a]pyridin-2-yl]cyclopropanecarboxamide]	1580
CN1CC[C@@H]1COc1cnn(C)c1-c1ccn2nc(N)cc2c1 [Example 503, 5-[2-methyl-4-[[(2R)-1-methylazetidin-2-yl]methoxy]pyrazol-3-yl]pyrazolo[1,5-a]pyridin-2-amine]	442
Cn1ncc(O[C@H]2CNC[C@H]2F)c1-c1ccn2nc(NC(=O)C3CC3)cc2c1 [Example 504, N-[5-[4-[(3S,4R)-4-fluoropyrrolidin-3-yl]oxy-2-methyl-pyrazol-3-yl]pyrazolo[1,5-a]pyridin-2-yl]cyclopropanecarboxamide]	466
CN1CCCC[C@H]1COc1cnn(C)c1-c1ccn2nc(NC(=O)C3CC3)cc2c1 [Example 505]	1380
Cn1ncc(OCC2(N)CC2)c1-c1ccn2nc(NC(=O)C3CC3)cc2c1 [Example 506, N-[5-[4-[(1-aminocyclopropyl)methoxy]-2-methyl-pyrazol-3-yl]pyrazolo[1,5-a]pyridin-2-yl]cyclopropanecarboxamide]	350
CN1CCCC[C@@H]1COc1cnn(C)c1-c1ccn2nc(NC(=O)C3CC3)cc2c1 [Example 507, N-[5-[2-methyl-4-[[(2R)-1-methyl-2-piperidyl]methoxy]pyrazol-3-yl]pyrazolo[1,5-a]pyridin-2-yl]cyclopropanecarboxamide]	1700
